Structures can show the parent of a compound that is named as a salt. Where two headings read alike, the source gives them in different places.
Experiments:
[1] = target: T1, MOR (Mus musculus, UniProt P42866); assay: MOR [35S]GTPγS functional assay (MOR-CHO membranes); assay type: biochemical; set-up: expressed in transfected cells; host or cells: CHO; conditions: read-out: MOR [35S]GTPγS Binding % Emax of DAMGO
Description: The [^35S]GTPγS functional assay was conducted to determine the efficacy of the compounds at the MOR. […] The Bradford protein assay was utilized to determine and adjust the concentration of protein required for the assay. Nonspecific binding was determined with 20 μM unlabeled GTPγS. Furthermore, 3 μM DAMGO was included in the assay as the maximally effective concentration of a full agonist for the MOR. After incubation, the bound radioactive ligand was separated from the free radioligand by filtration through a GF/B glass fiber filter paper and rinsed three times with ice-cold wash buffer (50 mM Tris-HCl, pH 7.2) using the Brandel harvester. Bound radioactivity was determined by liquid scintillation counting. All assays were determined in duplicate and repeated at least three times. Net stimulated [^35S]GTPγS binding was defined as agonist-stimulated minus basal binding in the absence of agonist. Percent of DAMGO-stimulated [^35S]GTPγS binding was defined as (net-stimulated binding by ligand/net-stimulated binding by 3 μM DAMGO)×100%.
Results were reported as mean values ±SEM.
The [^35S]-GTPγS binding assay was carried out as well to determine the functionality on the MOR of each compound. […] The [^35S]GTPγS functional assay was conducted to determine the efficacy of the compounds at the MOR, KOR and DOR. […] The Bradford protein assay was utilized to determine and adjust the concentration of protein required for the assay. Nonspecific binding was determined with 20 μM unlabeled GTPγS. Furthermore, 3 μM DAMGO/U50488H/SNC80 was included in the assay as the maximally effective concentration of a full agonist for the MOR/KOR/DOR. After incubation, the bound radioactive ligand was separated from the free radioligand by filtration through a GF/B glass fiber filter paper using a Brandel harvester. Bound radioactivity was determined by liquid scintillation counting. All assays were determined in duplicate and repeated at least three times. Net stimulated [^35S]GTPγS binding was defined as agonist-stimulated minus basal binding in the absence of agonist. Percent of DAMGO/U50488H/SNC80 stimulated [^35S]GTPγS binding was defined as (net-stimulated binding by ligand/net-stimulated binding by 3 μM DAMGO U50488H/SNC80)×100%.

[2] = target: T2, DOR (Homo sapiens, UniProt P41143); assay: competitive radioligand binding assay, DOR ([3H]diprenorphine, CHO cell membranes); conditions: read-out: Ki (nM) DOR
T2 construct: expressed in transfected cells; host or cells: CHO

[3] = target: T1, MOR; conditions: read-out: Ki (nM) MOR; Example 1 compounds (Tables 1, 2)
[4] = system: male Swiss Webster mice; assay: warm-water tail immersion (tail flick / tail-withdrawal) assay, antinociception; assay type: in vivo, mouse; conditions: Example 1 compounds; 10 mg/kg s.c., 20 min after injection
Description: In this assay, the duration for which mice kept their tails in the warm water was recorded.
All thirty-six compounds' antinociception were examined in tail immersion assay first to preclude any opioid receptor agonists.
Swiss Webster mice (six male mice for each group, 25-35 g, 6-8 weeks old) were used in this assay. Antinociception for all compounds was examined in male Swiss Webster mice. […] To prevent tissue damage, a 10 s maximum cutoff time was imposed. Antinociceptive response was calculated as the percentage of maximum possible effect (% MPE), where % MPE=[(test−control latency)/(10−control latency)]×100.
Warm-water tail immersion assay is a well-established assay for evaluating opioid analgesics, especially MOR agonists. […] In this context, all 24 compounds were first evaluated for their acute antinociception tail-withdrawal assay (FIG. 5A).
The tail-withdrawal test was performed using a water bath with the temperature maintained at 56±0.1° C. Baseline latency was measured before any injections. Each mouse was gently wrapped in a cloth with only the tail exposed. The distal one-third of the tail was immersed perpendicularly in water, and the mouse rapidly flicked the tail from the bath was seen as the first sign of discomfort. The duration of time the tail remained in the water bath was counted as the baseline latency. Untreated mice with baseline latency reaction times ranging from 2 to 4 seconds were used. Test latency was obtained 20 min later after each injection. A 10-second maximum cutoff latency was used to prevent any tissue damage. Antinociception was quantified as the percentage of maximal possible effect (% MPE), which was calculated as % MPE=[(test latency−control latency)/(10−control latency)]×100. The % MPE value was calculated for each mouse using 6 mice per group. Testing compounds were given 10 mg/kg (s.c.) to each mouse.

[5] = target: T3, KOR (Mus musculus, UniProt P33534); assay: competitive radioligand binding assay, KOR ([3H]diprenorphine, CHO cell membranes); set-up: expressed in transfected cells; host or cells: CHO; conditions: read-out: Ki (nM) KOR
[6] = system: morphine-pelleted mice; assay: opioid withdrawal study in morphine-pelleted mice; conditions: for withdrawal symptoms (wet-dog shakes, escape jumps, paw tremors): 1 mg/kg s.c., compared to 1 mg/kg NLX
[7] = target: T3, KOR; conditions: read-out: Ki (nM) KOR; reference data adopted from literature; cited from earlier work
[8] = system: male Swiss Webster mice; conditions: reference compounds, literature / previous studies; cited from earlier work
[9] = target: Human recombinant opioid receptors (MOR) (Homo sapiens, UniProt P35372); conditions: read-out: MOR [35S]-GTPγS Binding EC50; MNTX, reported data; cited from earlier work
[10] = system: mice; assay: carmine red dye study (GI tract motility, morphine-induced constipation)
[11] = male rats, oral administration; cited from earlier work
[12] = target: Human recombinant opioid receptors (KOR) (Homo sapiens, UniProt P41145); conditions: read-out: KOR [35S]-GTPγS binding EC50; MNTX, reported data; cited from earlier work
[13] = Example 1 compounds (Tables 1, 2)

O=C(CCc1cccs1)N[C@H]1CC[C@@]2(O)[C@H]3Cc4ccc(O)c5c4[C@@]2(CCN3CC2CC2)[C@H]1O5 [Example 1 compound 29, 17-Cyclopropylmethyl-3,14β-dihydroxy-4,5α-epoxy-6α-[3′-(thiophen-2″yl)propanamido]morphinan hydrochloride]
Emax [1]: 43.7 ± 1.71%

17-Cyclopropylmethyl-3,14β-dihydroxy-4,5α-epoxy-6α-(2′-thienylacetamido)morphinan hydrochloride [Example 1 compound 27]
Ki [2, 13]: 6.92 ± 1.63 nM

Cl.O=C(CCc1cccs1)N[C@@H]1CC[C@@]2(O)[C@H]3Cc4ccc(O)c5c4[C@@]2(CCN3CC2CC2)[C@H]1O5 [Example 1 compound 30, 17-Cyclopropylmethyl-3,14β-dihydroxy-4,5α-epoxy-6β-[3′-(thiophen-2 yl)propanamido]morphinan hydrochloride]
Ki [2]: 4.87 ± 1.19 nM | Ki [3]: 0.26 ± 0.01 nM | antinociceptive effect (% MPE, in words) [4]: exhibited antinociception | Ki [5]: 0.23 ± 0.02 nM

O=C(N[C@@H]1CC[C@@]2(O)[C@H]3Cc4ccc(O)c5c4[C@@]2(CCN3CC2CC2)[C@H]1O5)c1cccs1 [Example 1 compound 26, 17-Cyclopropylmethyl-3,14β-dihydroxy-4,5α-epoxy-6β-(2′-thienylcarboxamido)morphinan hydrochloride]
withdrawal symptoms (wet-dog shakes, escape jumps, paw tremors) [6]: significantly fewer wet-dog shakes, escape jumps, and paw tremors | withdrawal symptoms at higher doses ([6]; 5 mg/kg and above, s.c.): did not precipitate significant withdrawal symptoms at doses as high as 10 times that of NLX

17-Cyclopropylmethyl-3,14β-dihydroxy-4,5α-epoxy-6β-(2′-thienylacetamido)morphinan hydrochloride [Example 1 compound 28]
Ki [2, 13]: 64.9 ± 2.38 nM

O=C(NC1CCC2(O)C3Cc4ccc(O)c5c4C2(CCN3CC2CC2)C1O5)c1ccncc1 (stereo not drawn) [NAP, 17-cyclopropylmethyl-3,14-dihydroxy-4,5α-epoxy-6β-[(4′-pyridyl)carboxamido]morphinan]
Ki [7]: 278 ± 8 nM

O=C(Cc1ccsc1)N[C@H]1CC[C@@]2(O)[C@H]3Cc4ccc(O)c5c4[C@@]2(CCN3CC2CC2)[C@H]1O5 [Example 1 compound 33, 17-Cyclopropylmethyl-3,14β-dihydroxy-4,5α-epoxy-6α-(3′-thienylacetamido)morphinan hydrochloride]
Emax [1]: 28.6 ± 1.15%

C=CCN1CC[C@]23c4c5ccc(O)c4O[C@H]2C(=O)CC[C@@]3(O)[C@H]1C5 [NLX, naloxone, reference compound]
withdrawal symptoms (wet-dog shakes, escape jumps, paw tremors) [6]: precipitated withdrawal symptoms | AD50 mg/kg (95% CL) to antagonize morphine mediated antinociception [8]: 0.05 mg/kg

C[N@+]1(CC2CC2)CC[C@]23c4c5ccc(O)c4O[C@H]2C(=O)CC[C@@]3(O)[C@H]1C5 [MNTX, methylnaltrexone]
EC50 [9]: > 10000 nM | blockage of GI motility inhibition by morphine (in words) ([10]; 10 mg/kg oral gavage, morphine 5 mg/kg): no blockage was observed | oral bioavailability [11]: < 1% | EC50 [12]: > 10000 nM

CN1CC[C@]23c4c5ccc(O)c4O[C@H]2[C@@H](O)C=C[C@H]3[C@H]1C5 [morphine]
elongation of pellet defecation time compared to naïve group ([10]; morphine 10 mg/kg s.c.): 124 min

O=C(Cc1ccsc1)N[C@@H]1CC[C@@]2(O)[C@H]3Cc4ccc(O)c5c4[C@@]2(CCN3CC2CC2)[C@H]1O5 [Example 1 compound 34, 17-Cyclopropylmethyl-3,14β-dihydroxy-4,5α-epoxy-6β-(3′-thienylacetamido)morphinan hydrochloride]
Emax [1]: 26.5 ± 3.17%

O=C(N[C@@H]1CC[C@@]2(O)[C@H]3Cc4ccc(O)c5c4C2(CCN3CC2CC2)[C@H]1O5)c1ccncc1F [NFP]
AD50 mg/kg (95% CL) to antagonize morphine mediated antinociception [8]: 2.82 mg/kg
